Results reported in patent US7888061B2, “Method of stabilising or reactivating a creatinine sensor with a divalent manganese ion” (Radiometer Medical ApS, priority 2005, dated 2011).
Read-outs that look alike come from different tables or passages of the source.

What was measured:
[1] = target: T1, Creatinine Amidohydrolase (Creatininase) (Pseudomonas putida, UniProt P83772); settings: cited from earlier work; for reactivation of the inactive apoenzyme: addition of 0.5 mM, zinc ions removed from creatininase
T1 sequence (P83772 1-260): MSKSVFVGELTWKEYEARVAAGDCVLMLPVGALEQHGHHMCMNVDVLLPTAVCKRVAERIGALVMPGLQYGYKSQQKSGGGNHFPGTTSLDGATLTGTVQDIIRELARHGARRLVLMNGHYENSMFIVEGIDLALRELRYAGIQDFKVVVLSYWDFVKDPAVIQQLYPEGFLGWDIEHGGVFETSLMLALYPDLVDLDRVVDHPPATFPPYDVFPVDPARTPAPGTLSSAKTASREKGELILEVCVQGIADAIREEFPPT

[2] = target: creatininase (Pseudomonas putida, UniProt P83772)
Description: The following examples are intended to illustrate the invention without limiting the invention. In all of the examples, creatininase from Pseudomonas putida was used, obtained from Roche Diagnostics, Mannheim, Germany.
The stability of the creatinine sensor was tested by observing the sensor responses to calibration solutions containing each of the substrates creatinine and creatine.
The calibration solutions were prepared by dissolving about 200 μM creatinine in the Radiometer Calibration Solution 1 S1720 and about 200 μM creatine in the Radiometer Calibration Solution 2 S1730. These solutions were repeatedly introduced into the apparatus one after the other and sensor responses were obtained.
It is convenient to depict the relation between the creatinine sensor response to creatinine relative to the creatinine sensor response to creatine by the following ratio: R=response to creatinine/response to creatine.
If R is constant, the creatininase activity is stable. A declining value for R indicates an overall loss of creatininase activity.
The same experiment as described above was conducted with five creatinine sensors having a significant initial excess of creatininase. In FIG. 4, R is depicted for this experiment.

[3] = target: heat-treated creatininase (Pseudomonas putida, UniProt P83772); settings: enzyme assays
[4] = target: lactate oxidase (Aerococcus viridans, UniProt Q44467)
Sequence of lactate oxidase (Q44467 whole entry, species assumed): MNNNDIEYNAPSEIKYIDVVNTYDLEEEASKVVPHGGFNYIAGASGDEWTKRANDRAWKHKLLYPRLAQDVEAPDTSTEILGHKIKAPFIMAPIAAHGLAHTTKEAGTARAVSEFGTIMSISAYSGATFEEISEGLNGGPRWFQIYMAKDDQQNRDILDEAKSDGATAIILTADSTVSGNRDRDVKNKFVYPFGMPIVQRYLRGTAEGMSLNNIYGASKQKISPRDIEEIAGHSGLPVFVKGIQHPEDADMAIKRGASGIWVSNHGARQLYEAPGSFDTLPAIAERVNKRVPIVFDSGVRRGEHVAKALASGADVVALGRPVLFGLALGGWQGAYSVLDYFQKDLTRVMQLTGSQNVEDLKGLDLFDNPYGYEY

[5] = target: urease (Canavalia ensiformis, UniProt P07374)
Sequence of urease (P07374 whole entry, looked up): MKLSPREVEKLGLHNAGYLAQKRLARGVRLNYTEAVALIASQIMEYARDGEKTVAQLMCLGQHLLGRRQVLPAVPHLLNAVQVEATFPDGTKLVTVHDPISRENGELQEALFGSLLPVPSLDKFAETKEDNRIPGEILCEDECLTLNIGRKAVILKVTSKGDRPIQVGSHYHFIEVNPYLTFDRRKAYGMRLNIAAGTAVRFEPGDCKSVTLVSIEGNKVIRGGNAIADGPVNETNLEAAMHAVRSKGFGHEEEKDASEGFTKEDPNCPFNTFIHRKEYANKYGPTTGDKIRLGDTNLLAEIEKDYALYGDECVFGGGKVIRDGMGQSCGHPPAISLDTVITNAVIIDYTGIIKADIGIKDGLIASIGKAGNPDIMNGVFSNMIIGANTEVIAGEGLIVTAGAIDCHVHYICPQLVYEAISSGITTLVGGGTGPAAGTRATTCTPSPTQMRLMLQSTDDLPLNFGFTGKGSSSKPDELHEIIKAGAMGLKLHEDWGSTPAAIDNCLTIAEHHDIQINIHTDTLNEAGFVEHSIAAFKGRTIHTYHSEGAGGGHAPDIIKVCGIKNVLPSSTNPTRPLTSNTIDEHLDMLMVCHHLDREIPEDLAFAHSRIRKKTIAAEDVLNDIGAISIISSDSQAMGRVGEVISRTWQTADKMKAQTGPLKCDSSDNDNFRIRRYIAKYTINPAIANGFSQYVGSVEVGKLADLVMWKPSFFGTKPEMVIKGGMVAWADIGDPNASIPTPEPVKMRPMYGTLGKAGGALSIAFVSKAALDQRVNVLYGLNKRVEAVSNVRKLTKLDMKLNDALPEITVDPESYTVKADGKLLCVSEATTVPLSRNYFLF

[6] = target: glucose oxidase (Aspergillus niger, UniProt P13006)
Sequence of glucose oxidase (P13006 17-605, species assumed): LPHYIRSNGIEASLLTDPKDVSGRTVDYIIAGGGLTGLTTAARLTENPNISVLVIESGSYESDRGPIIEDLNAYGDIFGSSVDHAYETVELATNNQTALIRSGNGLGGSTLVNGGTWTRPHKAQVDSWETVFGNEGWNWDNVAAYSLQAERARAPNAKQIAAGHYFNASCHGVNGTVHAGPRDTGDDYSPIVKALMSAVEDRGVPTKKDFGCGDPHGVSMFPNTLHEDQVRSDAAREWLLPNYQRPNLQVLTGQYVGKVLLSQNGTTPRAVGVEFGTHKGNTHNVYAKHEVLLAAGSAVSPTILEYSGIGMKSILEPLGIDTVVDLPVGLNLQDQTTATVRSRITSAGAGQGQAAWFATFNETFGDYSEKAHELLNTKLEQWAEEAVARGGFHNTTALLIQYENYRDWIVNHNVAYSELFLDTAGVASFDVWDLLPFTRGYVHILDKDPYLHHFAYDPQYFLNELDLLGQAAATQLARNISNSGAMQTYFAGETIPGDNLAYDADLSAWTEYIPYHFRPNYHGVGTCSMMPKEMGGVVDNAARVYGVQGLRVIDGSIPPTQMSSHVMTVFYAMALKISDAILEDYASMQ

[7] = tested on: Creatinine Amidohydrolase; settings: 1.0 mM solution; cited from earlier work

SMILES | reactivation of the inactive apoenzyme [1] | inhibition of the activity of creatininase ([1]; purified, heat-treated enzyme) | also measured
[Co+2] [Co] | reactivated | inhibit slightly | –
[Fe+2] [Fe] | reactivated | inhibit slightly | –
[Ni+2] [Ni] | reactivated | inhibit slightly | –
[Mn+2] [divalent manganese ion] | reactivated | inhibit slightly | R = response to creatinine/response to creatine (relative sensor response) ([2]; 2 μM in Rinse Solution for 5½ days after 2¾ days without, two sensors with nearly no initial excess of creatininase, FIG. 3): approximately 0.8; R = response to creatinine/response to creatine (relative sensor response) ([2]; 10 μM in Rinse Solutions after 18 days without (R had decreased to 0.9), five sensors with significant initial excess of creatininase, FIG. 4): approximately 1.3; activation of creatininase ([2]; concentrations of about 0.01 to about 150 μM, without adverse effect on the other enzymes of the dual sensor system): activate creatininase; time for which the sensor response level was maintained ([2]; continuous treatment at about 2 μM, FIG. 3): at least 5 days; time for which the sensor response level was maintained ([2]; continuous treatment at about 10 μM, FIG. 4): at least 5 days; effect on heat-treated creatininase [3]: favourable effect; deactivation of lactate oxidase [4]: not to deactivate; deactivation of urease [5]: not to deactivate; deactivation of glucose oxidase [6]: not to deactivate
[Mg+2] [Mg] | reactivated | inhibit slightly | –
[Zn+2] [Zn] | reactivated | inhibit slightly | –
[Cl][Mn][Cl] [MnCl2] | – | – | reactivation of metal ion depleted creatininase [7]: reactivated
O=C(O)CN(CCN(CC(=O)O)CC(=O)O)CC(=O)O [EDTA, ethylenediamine tetraacetic acid] | – | – | inhibition of the activity of creatininase [1]: only slight inhibition
[Ca+2] [Ca] | – | inhibit slightly | –
